From ChEMBL document CHEMBL4706739, “Novel Heterobicyclic Carboxamides for Treating Eye Diseases” (ACS Med Chem Lett, 2021)

Biological target: Rho-associated protein kinase 2 (Homo sapiens, UniProt O75116)
Assay: Inhibition of ROCK2 (unknown origin) using KRRRLSSLRA as substrate incubated for 75 mins in presence of ATP and DTT by Kinase-Glo luminescent assay

Sequence of Rho-associated protein kinase 2 (O75116 whole entry): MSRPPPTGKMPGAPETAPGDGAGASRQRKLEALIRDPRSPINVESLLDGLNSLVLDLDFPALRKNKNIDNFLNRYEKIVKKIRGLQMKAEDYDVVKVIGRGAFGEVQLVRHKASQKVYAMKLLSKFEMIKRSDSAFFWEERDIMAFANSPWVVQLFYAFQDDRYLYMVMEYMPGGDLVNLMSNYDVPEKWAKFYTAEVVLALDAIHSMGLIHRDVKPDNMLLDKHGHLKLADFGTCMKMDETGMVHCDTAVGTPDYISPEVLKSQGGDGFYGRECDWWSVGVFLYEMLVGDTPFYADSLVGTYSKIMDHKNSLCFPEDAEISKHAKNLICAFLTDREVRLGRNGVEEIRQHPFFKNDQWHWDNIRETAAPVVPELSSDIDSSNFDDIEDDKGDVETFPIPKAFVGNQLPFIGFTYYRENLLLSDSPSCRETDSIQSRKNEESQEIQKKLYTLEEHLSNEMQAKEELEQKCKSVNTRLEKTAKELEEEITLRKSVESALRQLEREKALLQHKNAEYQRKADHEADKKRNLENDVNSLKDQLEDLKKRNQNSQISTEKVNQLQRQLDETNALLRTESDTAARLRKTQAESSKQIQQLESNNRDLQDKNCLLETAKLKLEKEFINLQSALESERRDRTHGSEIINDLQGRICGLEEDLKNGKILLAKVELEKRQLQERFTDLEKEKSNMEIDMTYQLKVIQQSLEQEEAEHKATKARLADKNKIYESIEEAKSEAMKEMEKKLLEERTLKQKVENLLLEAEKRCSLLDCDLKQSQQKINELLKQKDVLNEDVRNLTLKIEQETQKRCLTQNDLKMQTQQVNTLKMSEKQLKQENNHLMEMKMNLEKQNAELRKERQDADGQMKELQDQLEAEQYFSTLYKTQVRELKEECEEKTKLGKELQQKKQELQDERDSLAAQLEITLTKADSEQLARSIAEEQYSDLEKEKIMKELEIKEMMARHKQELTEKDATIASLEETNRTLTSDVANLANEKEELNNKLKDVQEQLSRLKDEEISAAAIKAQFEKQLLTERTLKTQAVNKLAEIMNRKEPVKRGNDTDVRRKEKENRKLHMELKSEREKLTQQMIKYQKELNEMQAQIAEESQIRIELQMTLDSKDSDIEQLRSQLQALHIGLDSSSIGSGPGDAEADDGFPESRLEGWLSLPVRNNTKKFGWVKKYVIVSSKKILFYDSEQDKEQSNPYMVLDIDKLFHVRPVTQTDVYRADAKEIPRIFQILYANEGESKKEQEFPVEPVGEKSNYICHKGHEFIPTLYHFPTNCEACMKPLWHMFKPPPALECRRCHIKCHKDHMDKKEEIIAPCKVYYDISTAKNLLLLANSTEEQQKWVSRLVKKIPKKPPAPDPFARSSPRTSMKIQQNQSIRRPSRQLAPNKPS

Row | IC50 [nM] | SMILES
1 | 6 | O=C(Nc1ccc2cnccc2n1)[C@@H]1C[C@H]1c1ccc(S(=O)(=O)Nc2ccccn2)cc1
2 | 6 | O=C(Nc1nc2ccncc2s1)[C@@H]1C[C@H]1c1ccc(S(=O)(=O)Nc2ccccn2)cc1
